Measured values: US12350382B2, “Method for preparing particles comprising metal oxide coating and particles with metal oxide coating” (priority 2007, dated 2025)

Assay: Analytical evaluation of the BPO release out of the silica shell (time for yellow color appearance, KI/sodium thiosulfate)
Assay type: physicochemical
Conditions: free (uncoated) BPO, 0 coatings, no aging
Experimental: The release profile of BPO out of the silica shell was done in a water/Acetonitrile solution, which is capable of dissolving BPO. The method is based on the strong oxidation properties of BPO. BPO reacts with potassium iodine (KI) ions to form I2, which gives a color reaction. I2 is than reduces back to I^− using sodium thiosulfate (STS) to eliminate the color. Each 12.11 mg of oxidizing BPO was reduced by 1 ml of 0.1M STS.
Solution A is composed of deionized water, acetone, 0.1M STS solution and KI.
The following table includes the ratios between the components in order to distinguish a certain % of released BPO.
Suspension B, preparation of BPO: weigh 200 mg of BPO as 100% (1 g as 20% suspension) into 5 ml measuring bottle and fill with deionized water up to 5 ml.
Procedure: Into 50 ml glass beaker add 40 ml of solution A and the 5 ml of suspension B and measure the time for yellow color appearance.

O=C(OOC(=O)c1ccccc1)c1ccccc1 [Free BPO, benzoyl peroxide]
time for 30 % of BPO released: 0.5 min | time for 90 % of BPO released: 1 min
